{"source": "patent US8663912B2", "about": "“Fluorogenic substrate for ADAMTS13” (Washington University, priority 2011, dated 2014)", "target": "T1, ADAMTS13 (Homo sapiens, UniProt Q76LX8)", "T1 sequence (Q76LX8 75-1427)": "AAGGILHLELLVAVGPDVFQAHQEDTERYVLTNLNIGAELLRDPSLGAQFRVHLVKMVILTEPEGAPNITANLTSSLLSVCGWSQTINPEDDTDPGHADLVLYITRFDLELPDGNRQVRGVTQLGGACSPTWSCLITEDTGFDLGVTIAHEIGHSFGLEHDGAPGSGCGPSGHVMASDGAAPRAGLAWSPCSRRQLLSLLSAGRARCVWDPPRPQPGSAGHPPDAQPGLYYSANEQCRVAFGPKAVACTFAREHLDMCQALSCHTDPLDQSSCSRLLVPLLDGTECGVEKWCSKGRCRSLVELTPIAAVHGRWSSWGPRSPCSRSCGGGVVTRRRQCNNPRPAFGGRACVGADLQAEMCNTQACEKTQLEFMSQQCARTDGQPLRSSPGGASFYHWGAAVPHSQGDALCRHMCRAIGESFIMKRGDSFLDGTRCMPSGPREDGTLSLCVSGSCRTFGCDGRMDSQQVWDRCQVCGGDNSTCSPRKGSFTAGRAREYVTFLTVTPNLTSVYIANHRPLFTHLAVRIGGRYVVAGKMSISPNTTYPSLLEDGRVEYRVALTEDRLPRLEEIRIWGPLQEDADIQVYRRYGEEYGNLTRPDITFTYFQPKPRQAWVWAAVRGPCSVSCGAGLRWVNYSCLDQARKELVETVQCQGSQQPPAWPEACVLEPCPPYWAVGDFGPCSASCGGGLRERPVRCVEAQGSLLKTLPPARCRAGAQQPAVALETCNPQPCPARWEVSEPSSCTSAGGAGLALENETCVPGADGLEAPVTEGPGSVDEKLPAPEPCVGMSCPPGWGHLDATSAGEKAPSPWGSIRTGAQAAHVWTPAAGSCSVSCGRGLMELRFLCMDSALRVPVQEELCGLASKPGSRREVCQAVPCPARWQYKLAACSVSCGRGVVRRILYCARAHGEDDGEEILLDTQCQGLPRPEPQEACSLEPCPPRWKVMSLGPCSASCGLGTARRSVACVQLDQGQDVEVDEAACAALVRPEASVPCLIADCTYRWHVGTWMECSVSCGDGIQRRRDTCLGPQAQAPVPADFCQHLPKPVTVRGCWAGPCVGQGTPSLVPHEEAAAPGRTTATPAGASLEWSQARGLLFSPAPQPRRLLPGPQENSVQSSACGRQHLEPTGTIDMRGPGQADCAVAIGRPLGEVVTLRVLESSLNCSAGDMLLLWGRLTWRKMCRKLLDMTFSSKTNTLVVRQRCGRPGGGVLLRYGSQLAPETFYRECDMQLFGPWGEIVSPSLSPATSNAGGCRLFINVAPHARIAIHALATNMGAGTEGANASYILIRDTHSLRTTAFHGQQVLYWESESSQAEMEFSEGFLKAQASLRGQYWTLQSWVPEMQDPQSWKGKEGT", "assay": "ADAMTS13 inhibitor titer assay with FRETS-rVWF71 substrate", "assay_type": "biochemical", "parameters": "from tissue; host or cells: human plasma or serum (pooled normal plasma, healthy donors, TTP patients)", "settings": "TTP patients with detectable inhibitor; printed 1.4-fold to >5-fold", "experimental": "Plasma samples with ADAMTS13 protease activity <10% were tested for the presence of an ADAMTS13 inhibitor. Plasma samples were serially diluted two-fold with assay buffer (50 mM HEPES, pH 7.4, 150 mM NaCl, 10 mM CaCl2, and 0.05% Tween-20) to yield 8 dilutions. In duplicate, PNP (50 μL) was mixed with an equal volume (50 μL) of undiluted test plasma and each serially diluted sample. Control conditions included PNP mixed with an equal volume of cleavage buffer. The microplate containing the samples was sealed with adhesive film (Sealplate, Excel Scientific, Victorville, Calif.) and incubated at 37° C. for 1 h. Reaction was initiated by addition of 100 μL of assay buffer containing 2 μM FRETS-rVWF71. Fluorescence emission was monitored and initial reaction rates were determined.\nThe inhibitor titer was determined by fitting the initial reaction rates to a four parameter logistic model or sigmoidal dose response equation by nonlinear regression (Prism): Rate(D)=[…]/(1+10^((log T−log D)*H)) […]\nA fixed amount of ADAMTS13 in PNP (100 μL) was preincubated with serially diluted plasma samples and assayed for ADAMTS13 activity. Reaction rates were analyzed according to a model for competitive sigmoidal dose-response inhibition to obtain the dilution of plasma at which ADAMTS13 activity is decreased by 50%, and the inverse of the dilution is the inhibitor titer (FIG. 7C). […]", "note": "* marks the point of attachment. X1 = CC1(C)C(/C=C/C2=C(Cl)C(=C/C=C3/N(CCCCCC(=O)*)c4ccc5cc(S(=O)(=O)O)ccc5c4C3(C)C)/CCC2)=[N+](CCCS(=O)(=O)[O-])c2ccc(N(CCCS(=O)(=O)O)CCCS(=O)(=O)O)cc21; X2 = CC(C)(C)c1cc(/C=C/C=C2\\N(CCCS(=O)(=O)O)c3ccc(S(=O)(=O)O)cc3C2(C)CCCC(=O)CCN2C(=O)CC(*)C2=O)c2ccc(N(CCCS(=O)(=O)[O-])CCCS(=O)(=O)O)cc2[o+]1", "data": [{"substance": "X1-GQAPNLVYMVTGC(X2)PASDEIRRLPGDIQVVPIGVGPNANVQELERIGWPNAPILIQDFETLPREAPDLVLQR [FRETS-rVWF71]", "values": [{"measurement": "inhibitor titers higher than with FRETS-VWF73", "value": "≥ 1.4", "unit": "fold"}]}]}
